According to PMC6085608, “Glutathione S-transferases play a role in the detoxification of flumethrin and chlorpyrifos in Haemaphysalis longicornis” (Parasites & Vectors, 2018):

What was measured:
recombinant HlGST = target: T1, recombinant HlGST (Haemaphysalis longicornis, UniProt Q6JVN0); assay: CDNB conjugation kinetics with […] acaricide; format: biochemical; details: 5 mM glutathione, CDNB 0.125-2 mM, pH 7.5, 25 °C
T1 construct: gene GST
T1 sequence (Q6JVN0 1-223): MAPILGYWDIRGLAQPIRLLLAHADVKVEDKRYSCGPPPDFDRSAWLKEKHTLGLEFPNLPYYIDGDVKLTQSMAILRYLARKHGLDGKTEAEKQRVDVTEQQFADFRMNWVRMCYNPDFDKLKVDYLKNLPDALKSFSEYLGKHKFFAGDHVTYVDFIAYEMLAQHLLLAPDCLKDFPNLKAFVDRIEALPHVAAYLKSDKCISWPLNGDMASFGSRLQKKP

recombinant HlGST2 = target: T2, recombinant HlGST2 (Haemaphysalis longicornis, UniProt A0A2Z6FA39); assay: CDNB conjugation kinetics with […] acaricide; format: biochemical; details: inhibitor, noncompetitive, 5 mM glutathione, CDNB 0.125-2 mM, pH 7.5, 25 °C
T2 construct: gene GST
T2 sequence (A0A2Z6FA39 1-230): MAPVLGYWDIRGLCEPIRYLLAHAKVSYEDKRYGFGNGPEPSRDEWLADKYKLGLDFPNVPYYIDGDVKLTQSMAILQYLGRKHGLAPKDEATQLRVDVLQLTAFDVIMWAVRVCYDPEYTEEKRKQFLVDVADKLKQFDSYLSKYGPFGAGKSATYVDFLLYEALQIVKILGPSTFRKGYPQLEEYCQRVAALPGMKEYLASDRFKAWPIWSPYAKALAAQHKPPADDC

Row | SMILES | CDNB conjugation kinetics with 0.1 mM acaricide (recombinant HlGST; apparent activator (lowers Km for CDNB)) | CDNB conjugation kinetics with 0.1 mM acaricide (recombinant HlGST2) | CDNB conjugation kinetics with 0.1 mM acaricide (recombinant HlGST; inhibitor, uncompetitive)
1 | CCOP(=S)(OCC)Oc1ccc2c(C)c(Cl)c(=O)oc2c1 [coumaphos] | Coumaphos significantly decreased the Km of recombinant HlGST, indicating the apparent activation |  | 
2 | CCOP(=S)(OCC)Oc1nc(Cl)c(Cl)cc1Cl [chlorpyrifos] |  | chlorpyrifos and cypermethrin showed noncompetitive inhibition of recombinant HlGST2 | 
3 | CC1(C)C(C=C(Cl)c2ccc(Cl)cc2)C1C(=O)OC(C#N)c1ccc(F)c(Oc2ccccc2)c1 (centres unmarked) [flumethrin] |  |  | flumethrin and cypermethrin showed uncompetitive inhibition of recombinant HlGST
4 | CC1(C)C(C=C(Cl)Cl)C1C(=O)OC(C#N)c1cccc(Oc2ccccc2)c1 (centres unmarked) [cypermethrin] |  | chlorpyrifos and cypermethrin showed noncompetitive inhibition of recombinant HlGST2 | flumethrin and cypermethrin showed uncompetitive inhibition of recombinant HlGST
